The record followed here is ChEMBL document CHEMBL4007445, “Design, synthesis, and biological evaluation of imidazo[1,2-b]pyridazine derivatives as mTOR inhibitors” (Eur J Med Chem, 2017).

Data set [1] in a line: Growth inhibition of human U87 cells at 20 uM after 72 hrs by SRB assay relative to control. The format is functional, U-87MG ATCC. The note with it: U-87 MG, read-out: GI.
The test system of data set [2] is HeLa. Nature of the data set: Growth inhibition of human HeLa cells at 20 uM after 72 hrs by SRB assay relative to control. The format is functional. The conditions noted are these: read-out: GI. (In general: Sulforhodamine B stains cellular protein and so reports cell mass.)
Data set [3] relates to MCF7. The data set can be described thus: Growth inhibition of human MCF7 cells at 20 uM after 72 hrs by SRB assay relative to control. The format is functional. The note with it: MCF7, 72 h, read-out: GI.
Data set [4] concerns A549. Nature of the data set: Growth inhibition of human A549 cells at 20 uM after 72 hrs by SRB assay relative to control. It counts as functional. The conditions noted are these: A549, 72 h, read-out: GI.
The subject of data set [5] is A-375. The data set can be described thus: Growth inhibition of human A375 cells at 20 uM after 72 hrs by SRB assay relative to control. The note with it: A-375, 72 h, read-out: GI. The format is functional.
Data set [6] has as its system NCI-H460. Nature of the data set: Antiproliferative activity against human NCI-H460 cells after 72 hrs by SRB assay. It counts as functional, cell-based. The conditions noted are these: NCI-H460, 72 h.
Data set [7] deals with A549. The data set can be described thus: Antiproliferative activity against human A549 cells after 72 hrs by SRB assay. The format is functional, cell-based. The conditions noted are these: A549, 72 h.
For data set [8], the system named is HEK293. Nature of the data set: Antiproliferative activity against HEK293 cells after 72 hrs by SRB assay. The conditions noted are these: Homo sapiens, HEK293, 72 h. It counts as cell-based.
In data set [9] the test system is MCF7. Nature of the data set: Antiproliferative activity against human MCF7 cells after 72 hrs by SRB assay. The format is functional, cell-based. The note with it: MCF7, 72 h.
Data set [10] in a line: Antiproliferative activity against human U87 cells after 72 hrs by SRB assay. It counts as functional, cell-based, U-87MG ATCC. The conditions noted are these: U-87 MG.
Data set [11] is described as follows: Solubility of the compound. It counts as physicochemical.
The test system of data set [12] is A-375. Nature of the data set: Antiproliferative activity against human A375 cells after 72 hrs by SRB assay. The format is functional, cell-based. The note with it: A-375, 72 h.

On to `COc1ccc(-c2cc(N3CCOC[C@@H]3C)c3ncc(C4CCN(C(=O)c5cccnc5)CC4)n3n2)cc1CO`, for which the inhibition of growth at 20 µM is 4.3% in [1]; 17.8% in data set [2]; 42.1% in data set [3]; 46.8% in data set [4]; 19.6% in [5].

Regarding `Cc1cnc2c(N3CCOCC3)cc(-c3ccc(NC(=O)Nc4cccnc4)cc3)nn12`, the 50% inhibitory concentration (IC50) amounted to 6.8 µM in [6]; 5 µM in data set [7]; 11.5 µM in data set [8]; 16.3 µM in [9]; 12.9 µM in data set [10]; 6.4 µM in data set [12]. In addition, in data set [11], the solubility entry is “Insoluble”.

For the molecule `COc1ccc(NC(=O)Nc2ccc(-c3cc(N4CCOC[C@@H]4C)c4nccn4n3)cc2)cc1`, the IC50 in [6] was determined as 4.2 µM; in [7], 2.7 µM; in data set [8], 10.5 µM; in [9], 5.7 µM; in data set [10], 7.9 µM; in data set [12] it was 7.7 µM.

`C[C@H]1COCCN1c1cc(-c2cccc(CO)c2)nn2c(C3CCN(S(C)(=O)=O)CC3)cnc12`: the inhibition of growth at 20 µM in data set [1] is 4.5%; in data set [2], -2.3%; in data set [3], 36.1%; in data set [4], 48.1%; in [5] it was 11.6%.

With `Cc1cnc2c(N3CCOCC3)cc(-c3ccc(NC(=O)Nc4ccncc4)cc3)nn12`, the 50% inhibitory concentration (IC50) in data set [6], in [7], in [8], in data set [9], in [10] and in [12] was above 40 µM each time. In addition, the solubility result in data set [11] is listed as “Insoluble”.

`C[C@H]1COCCN1c1cc(-c2ccc3[nH]ccc3c2)nn2c(C3CCN(Cc4cccnc4)CC3)cnc12`: the inhibition of growth at 20 µM in data set [1] came to 84.4%; in data set [2], 73.6%; in data set [3], 96.5%; in [4] it was 84%; in data set [5], 96.7%. Moreover, the IC50 in data set [7] was 7.7 µM; in data set [9] it was 6.3 µM; in data set [10], 7.9 µM; in [12], 3.4 µM.

As to `COC(=O)N1CCC(c2cnc3c(N4CCOC[C@@H]4C)cc(-c4ccc5[nH]ccc5c4)nn23)CC1`, the inhibition of growth at 20 µM in [1] is 26.4%; in [2], 56%; in data set [3] it was 43.2%; in data set [4], 16%; in data set [5], 33.8%.

Turning to `O=C(Nc1ccc(-c2cc(N3CC4CCC(C3)O4)c3nccn3n2)cc1)Nc1cccnc1`, the IC50 was 0.65 µM in [6]; 1.1 µM in data set [7]; 9 µM in data set [8]; 37.9 µM in [9]; 5.8 µM in data set [10]; 4.7 µM in [12].

Regarding `O=C(Nc1ccncc1)Nc1ccc(-c2cc(N3CCOCC3)c3nccn3n2)cc1`, the IC50 in data set [6] turned out to be 20.7 µM; in data set [7], 2.8 µM; in [8] it was 12.4 µM; in data set [9] it was 21.9 µM; in data set [10] it was 11.1 µM; in data set [12], 7.2 µM.

As to `COC(=O)N1CCC(c2cnc3c(N4CCOC[C@@H]4C)cc(-c4cccc(CO)c4)nn23)CC1`, the inhibition of growth at 20 µM was -5.2% in data set [1]; 0.2% in [2]; 34.6% in data set [3]; 40.4% in [4]; 16.3% in data set [5].

In the case of `CN1CCN(c2ccc(NC(=O)Nc3ccc(-c4cc(N5CC6CCC(C5)O6)c5nccn5n4)cc3)cc2)CC1`, the IC50 came out at 2.9 µM in [6]; 3.1 µM in data set [7]; 12.1 µM in data set [8]; 2.9 µM in data set [9]; 4.3 µM in data set [10]; 1.8 µM in data set [12].

With `Cc1cnc2c(N3CCOC[C@@H]3C)cc(-c3ccc(NC(=O)Nc4ccncc4)cc3)nn12`, the IC50 in data set [6] was above 40 µM; in data set [7], 2.1 µM; in data set [8] it was above 40 µM; in [9], above 40 µM; in data set [10] it was above 40 µM; in data set [12] it was 2.3 µM. For the same molecule, in [11], the solubility entry is “Insoluble”.

For the molecule `C[C@H]1COCCN1c1cc(-c2ccc3[nH]ccc3c2)nn2c(C3CCN(S(C)(=O)=O)CC3)cnc12`, the inhibition of growth at 20 µM in [1] worked out at 45.4%; in [2], 47.4%; in data set [3] it was 55.3%; in data set [4], 34%; in [5], 29.4%.

Take `COc1ccc(-c2cc(N3CCOC[C@@H]3C)c3ncc(C4CCN(S(C)(=O)=O)CC4)n3n2)cc1CO`: the inhibition of growth at 20 µM turned out to be 4% in data set [1]; 12.7% in data set [2]; 45.1% in data set [3]; 49.6% in data set [4]; 21.2% in data set [5].

As to `O=C(Nc1ccncc1)Nc1ccc(-c2cc(N3CC4CCC(C3)O4)c3nccn3n2)cc1`, the IC50 in data set [6] was found to be 2.2 µM; in data set [7], 2.3 µM; in data set [8], 3.4 µM; in data set [9], 6.3 µM; in data set [10], 11.7 µM; in data set [12], 10.9 µM.

For the molecule `CN1CCN(c2ccc(NC(=O)Nc3ccc(-c4cc(N5CCOCC5)c5nccn5n4)cc3)cc2)CC1`, the IC50 amounted to 3 µM in data set [6]; 3.3 µM in [7]; 7.8 µM in [8]; 4.3 µM in [9]; 4.9 µM in data set [10]; 1.6 µM in [12].

In the case of `C[C@H]1COCCN1c1cc(-c2cnc(N)nc2)nn2c(C3CCN(S(C)(=O)=O)CC3)cnc12`, the inhibition of growth at 20 µM in [1] is 1.5%; in [2], 4.4%; in data set [3], 24.3%; in [4] it was 39.5%; in data set [5] it was 17.5%.

Turning to `CCc1cnc2c(N3CCOC[C@@H]3C)cc(-c3ccc(NC(=O)Nc4cccnc4)cc3)nn12`, the IC50 turned out to be 3.7 µM in [6]; 5.3 µM in [7]; 7.3 µM in data set [8]; 6.6 µM in [9]; 8.4 µM in data set [10]; 4.2 µM in data set [12]. In data set [11], the solubility result is “Insoluble”.

With `COc1ccc(-c2cc(N3CCOC[C@@H]3C)c3ncc(C4CCN(Cc5cccnc5)CC4)n3n2)cc1CO`, the inhibition of growth at 20 µM worked out at 11.7% in [1]; 50.3% in data set [2]; 37.9% in [3]; 65% in data set [4]; 15.2% in data set [5].

In the case of `OCc1cccc(-c2cc(N3CCOCC3)c3ncc(C4CCN(Cc5cccnc5)CC4)n3n2)c1`, the inhibition of growth at 20 µM in data set [1] was determined as 7.8%; in data set [2], 19.4%; in data set [3], 46.2%; in data set [4], 30.2%; in data set [5], 12.5%.

With `C[C@H]1COCCN1c1cc(-c2ccc3[nH]ccc3c2)nn2c(C3CCN(C(=O)c4cccnc4)CC3)cnc12`, the inhibition of growth at 20 µM in [1] amounted to 58.3%; in [2] it was 34.2%; in data set [3] it was 75.6%; in [4] it was 57%; in data set [5] it was 96.7%. In addition, the IC50 in data set [7] stood at 11.6 µM; in [9], 9.9 µM; in data set [10], 10 µM; in data set [12], 4.1 µM.

In the case of `C[C@H]1COCCN1c1cc(-c2ccc(NC(=O)Nc3ccc(N4CCN(C)CC4)cc3)cc2)nn2ccnc12`, the IC50 in [6] turned out to be 2 µM; in data set [7], 1.5 µM; in data set [8], 8.4 µM; in data set [9], 3.5 µM; in data set [10] it was 2.6 µM; in data set [12], 2 µM.

In the case of `C[C@H]1COCCN1c1cc(-c2cnc(N)nc2)nn2c(C3CCN(C(=O)c4cccnc4)CC3)cnc12`, the inhibition of growth at 20 µM was 11.7% in [1]; 9.4% in data set [2]; 32% in [3]; 42.1% in data set [4]; 17.8% in data set [5].

On to `O=C(Nc1ccc(-c2cc(N3CCOCC3)c3nccn3n2)cc1)Nc1cccnc1`, for which the IC50 in data set [6] turned out to be 1 µM; in data set [7], 0.22 µM; in data set [8], 1.4 µM; in data set [9] it was 17.7 µM; in data set [10] it was 20 µM; in data set [12], 15.7 µM.

Consider `c1cncc(CN2CCC(c3cnc4c(N5CCOCC5)cc(-c5ccc6[nH]ccc6c5)nn34)CC2)c1`, for which the inhibition of growth at 20 µM in [1] was 84.2%; in data set [2], 68.6%; in [3], 94.6%; in data set [4] it was 96.5%; in [5], 95.8%. In addition, the IC50 came out at 7.1 µM in data set [7], 13.5 µM in [9], 5.1 µM in data set [10] and 8 µM in [12].

In the case of `C[C@H]1COCCN1c1cc(-c2cnc(N)nc2)nn2c(C3CCN(Cc4cccnc4)CC3)cnc12`, the inhibition of growth at 20 µM was 10.8% in data set [1]; 30.5% in [2]; 34.2% in data set [3]; 44.8% in [4]; 14.7% in data set [5].

In general, IC50 refers to the concentration needed to halve the response being measured. The low end stands for greater potency in that assay, the high end for weaker potency in that assay.
